Test results: US6491922B1, “Methods and compounds for treating autoimmune and vascular disease” (Cornell Research Foundation, Inc., priority 1996, dated 2002)
“Also recorded” adds a separate entry of the source.

Tests used:
[1] = tested on: E-selectin; assay: Endotoxin-induced E-selectin expression on endothelial cells (FACS); assay type: cell-based, human; conditions: LPG pretreatment 1 h
Procedure: Endothelial cells pretreated with LPG at indicated amounts for 1 h were subsequently challenged with endotoxin. Washed cells incubated with monoclonal antibody specific for E-selectin or ICAM-1 were counter stained with fluorescein labeled anti-murine antibody, fixed and analyzed by FACS.

[2] = tested on: human umbilical vein endothelial cells; assay: LPG and LPG fragment binding to endothelial cells (indirect immunofluorescence, FACS); conditions: LPG 1 μM
[3] = tested on: IL-1β transcription; assay: In vitro transcription by nuclear run-off assay, IL-1β; assay type: cell-based, human; conditions: THP-1 nuclei; 2 μM LPG 2 h, LPS 2 μg/ml 4 h
Procedure: Nuclei isolation. Procedures for isolating nuclei have been described in Ausubel, F. M. et al., Current Protocols in Molecular Biology 1(4.9):4.9.1-4.9.14 and 1(4.10):4.10.1-4.10.11 (1993), hereby incorporated by reference. THP-1 cells (5×10^7 cells) treated with medium or medium containing 2 μM LPG for 2 h were stimulated or not stimulated with 2 μg/ml LPS for 4 h, at 37° C. in 5% CO2. Cells were harvested by gentle scraping, washed twice with 5 ml ice cold PBS and centrifugation at 350×g for 5 min. After removal of supernatant, cells were gently loosen by 5 sec vortex and 4 ml NP-40 buffer was added by continuous vortex. The NP-40 buffer is composed of 10 mM Tris HCl (pH 7.4), 10 mM NaCl, 3 mM MgCl2, and 0.5% noridet P-40 (NP-40). The cell suspension was further vortexed at half maximal speed for 10 sec and placed on ice for 5 min. Cells were visually inspected to ascertain the separation of nuclei from cytophasmic material. Nuclei were wash once more with 4 ml NP-40 buffer by centrifugation at 350×g, 5 min. The pelleted nuclei were resuspended with 200 μl glycerol buffer and stored in liquid nitrogen until nuclear run-off assay. Glycerol buffer is composed of 50 mM Tris Hcl (pH 8.3), 40% (v/v) glycerol, 5 mM MgCl2, 0.1 mM ethylenediaminetetraacetic acid (EDTA).
In vitro transcription. […]

[4] = tested on: endothelial cells; assay: ^3H-lyso-PI binding to endothelial cells; set-up: species or system human; conditions: cold-LPG competition at 20×molar excess; n=2
Procedure: To evaluate whether lyso-PI may directly bind to endothelial cells, endothelial cells (10^6 per ml) were incubated with ^3H-lyso-PI (1 μM [specific activity, ˜10,000 cpm/nmole], 45 min, 25° C.). As a control, endothelial cells were pretreated with LPG (20 μM, 15 min, 25° C.) before the incubation with ^3H-lyso-PI. Following incubation, the cell suspension was layed onto silicone oil (Silicones FC-50, General Electric, Waterford, N.Y.) and cell-bound ^3H-lyso-PI was separated from free-^3H-lyso-PI by centrifugation (10,000 g, 10 min, room temperature). The amount of ^3H-lyso-PI in the cell pellet and in the supernatant were solubilized in Ecoscint (National Diagnostics, Highland Park, N.J.) and quantitated by a β-emission counter (Beckman Instruments, Palo Alto, Calif.).

[5] = tested on: THP-1 cells; assay: LPG and LPG fragment binding to THP-1 cells (indirect immunofluorescence, FACS); set-up: species or system human; conditions: LPG 1 μM
[6] = tested on: TNF-α transcription; assay: Nuclear run-on assay, TNF-α transcription; assay type: cell-based, human; conditions: LPG 1 μM pretreatment; LPS 1 μg/ml

lipophosphoglycan [LPG]
effect on endotoxin-mediated expression of E-selectin [1]: strongly suppressed; also recorded: blockage or suppression
time at which LPG binding was obvious [2]: 16 min
LPG binding ([2]; 1 h): significant LPG was bound
inhibition of LPS induced IL-1β mRNA transcription [3]: approximately 65%
inhibition of ^3H-lyso-PI binding [4]: 29±3%
time at which LPG binding was obvious [5]: 16 min
LPG binding ([5]; 1 h): significant LPG was bound
suppression of endotoxin-mediated TNF-α transcription [6]: −70%
